Source: PMC8617944, “Preclinical Pharmacokinetics and Acute Toxicity in Rats of 5-{[(2E)-3-Bromo-3-carboxyprop-2-enoyl]amino}-2-hydroxybenzoic Acid: A Novel 5-Aminosalicylic Acid Derivative with Potent Anti-Inflammatory Activity” (Molecules, 2021)
Entries after “also recorded” stand apart in the source; their conditions may differ. Like-named read-outs stand apart in the source and are kept apart here.

Experiments:
[1] = Distribution of C1 in tissues; format: in vivo, Wistar rats; conditions: p.o. 75 mg/kg
Method: Fifteen male Wistar rats were distributed in five groups (n = 3) and rats were orally administered C1 at a single dose of 75 mg/kg. Subsequently, a group of animals was sacrificed (n = 3) at 10, 30, 90, 180, and 360 min. […] All tissues and organs were weighed on an analytical balance and immediately processed. Each tissue sample was homogenized with saline solution in a 1:3 (wt/v) ratio. The preparation process for analysis was the same as described above for plasma samples [57] (File S8).

[2] = parameters: method as in ref 32, 33 = [32]; doi:10.1016/j.arabjc.2016.12.026; 32. Cabrera Pérez L.C. Gutiérrez Sánchez M. Mendieta Wejebe J.E. Hernández Rodríguez M. Fragoso Vázquez M.J. Salazar J.R. Correa Basurto J. Padilla Martínez I.I. Rosales Hernández M.C. Novel 5-aminosa || [33]; 33. Correa Basurto J. Rosales Hernández M.C. Mendieta Wejebe J.E. Trujillo Ferrara J.G. Padilla Martínez I.I. Ramírez Durán L.A. Alemán González Duhart D. Síntesis de un derivado del ácido 5-aminosali; conditions: 0.408 mM; cited from earlier work
[3] = Acute toxicity, up-and-down OECD method (Guideline 425); format: in vivo; conditions: both sexes, rat, in vivo, Wistar rats, read-out: Median lethal dose (LD50)
Method: (§1) For all experiments, rats were allowed to acclimatize to the lab conditions during one week prior to undergoing assays. For the pharmacokinetic studies, animals were randomly divided into three groups (n = 6, body weight 300 ± 20 g). Eight female rats were employed in the up-and-down acute toxicity procedure. The animals were fasted for 8 h before and 4 h after drug administration but always given free access to water.
(§2) If the first animal dies, the second animal is given a lower dose. A dose progression factor of 3.2 can be used. […] The animals were monitored for 14 days post-dosing and then sacrificed. The LD50 values were calculated with AOTStatPgm.

Wistar rats = assay: as above; format: in vivo
Method: as §1, §2

In the case of `O=C(/C=C(/Br)C(=O)O)Nc1ccc(O)c(C(=O)O)c1` [Compound C1, 5-{[(2E)-3-bromo-3-carboxyprop-2-enoyl]amino}-2-hydroxybenzoic acid], the concentration at 6 h ([1]; male, Wistar, rat, heart, po, 75 mg/kg, Hearth, individual rats, read-out: Concentration (µg/mL) at 6 h, Rat 1-3) was 2.4 µg/mL, the concentration at 10 min ([1]; male, Wistar, rat, kidney, po, 75 mg/kg, Kidney, 10 min, n = 3, read-out: Average Concentration) was 16 µg/mL and the concentration at 30 min ([1]; male, Wistar, rat, kidney, po, 75 mg/kg, Kidney, 30 min, n = 3, read-out: Average Concentration) was 6.9 µg/mL. It also gave a concentration at 90 min ([1]; male, Wistar, rat, kidney, po, 75 mg/kg, Kidney, 90 min, n = 3, read-out: Average Concentration) of 4.8 µg/mL, a concentration at 3 h ([1]; male, Wistar, rat, kidney, po, 75 mg/kg, Kidney, 3 h, n = 3, read-out: Average Concentration) of 4.7 µg/mL and a concentration at 6 h ([1]; male, Wistar, rat, kidney, po, 75 mg/kg, Kidney, 6 h, n = 3, read-out: Average Concentration) of 4.1 µg/mL. The concentration at 30 min ([1]; male, Wistar, rat, kidney, po, 75 mg/kg, Kidney, individual rats, read-out: Concentration (µg/mL) at 30 minutes, Rat 1-3) was 6.1 µg/mL, the concentration at 90 min ([1]; male, Wistar, rat, kidney, po, 75 mg/kg, Kidney, individual rats, read-out: Concentration (µg/mL) at 90 minutes, Rat 1-3) was 3.6 µg/mL and the concentration at 10 min ([1]; male, Wistar, rat, liver, po, 75 mg/kg, Liver, 10 min, n = 3, read-out: Average Concentration) was 4.6 µg/mL. For the same compound, the concentration at 30 min ([1]; male, Wistar, rat, liver, po, 75 mg/kg, Liver, 30 min, n = 3, read-out: Average Concentration) was 6.4 µg/mL, the concentration at 90 min ([1]; male, Wistar, rat, liver, po, 75 mg/kg, Liver, 90 min, n = 3, read-out: Average Concentration) was 4.4 µg/mL and the concentration at 3 h ([1]; male, Wistar, rat, liver, po, 75 mg/kg, Liver, 3 h, n = 3, read-out: Average Concentration) was 4.9 µg/mL. For the same compound, the concentration at 6 h ([1]; male, Wistar, rat, liver, po, 75 mg/kg, Liver, 6 h, n = 3, read-out: Average Concentration) was 4.2 µg/mL, the concentration at 10 min ([1]; male, Wistar, rat, liver, po, 75 mg/kg, Liver, individual rats, read-out: Concentration (µg/mL) at 10 minutes, Rat 1-3) was 4.4 µg/mL and the concentration at 30 min ([1]; male, Wistar, rat, liver, po, 75 mg/kg, Liver, individual rats, read-out: Concentration (µg/mL) at 30 minutes, Rat 1-3) was 5.8 µg/mL. For the same compound, the concentration at 10 min ([1]; male, Wistar, rat, lung, po, 75 mg/kg, Lung, 10 min, n = 3, read-out: Average Concentration) was 15.7 µg/mL, the concentration at 30 min ([1]; male, Wistar, rat, lung, po, 75 mg/kg, Lung, 30 min, n = 3, read-out: Average Concentration) was 10.7 µg/mL and the concentration at 90 min ([1]; male, Wistar, rat, lung, po, 75 mg/kg, Lung, 90 min, n = 3, read-out: Average Concentration) was 7.4 µg/mL. For the same compound, the concentration at 3 h ([1]; male, Wistar, rat, lung, po, 75 mg/kg, Lung, 3 h, n = 3, read-out: Average Concentration) was 7.2 µg/mL, the concentration at 6 h ([1]; male, Wistar, rat, lung, po, 75 mg/kg, Lung, 6 h, n = 3, read-out: Average Concentration) was 6.3 µg/mL and the concentration at 10 min ([1]; male, Wistar, rat, muscle, po, 75 mg/kg, Muscle, 10 min, n = 3, read-out: Average Concentration) was 4.7 µg/mL. The concentration at 30 min ([1]; male, Wistar, rat, muscle, po, 75 mg/kg, Muscle, 30 min, n = 3, read-out: Average Concentration) was 3.8 µg/mL, the concentration at 90 min ([1]; male, Wistar, rat, muscle, po, 75 mg/kg, Muscle, 90 min, n = 3, read-out: Average Concentration) was 3.3 µg/mL and the concentration at 3 h ([1]; male, Wistar, rat, muscle, po, 75 mg/kg, Muscle, 3 h, n = 3, read-out: Average Concentration) was 2.7 µg/mL. It also gave a concentration at 6 h ([1]; male, Wistar, rat, muscle, po, 75 mg/kg, Muscle, 6 h, n = 3, read-out: Average Concentration) of 2.5 µg/mL, a concentration at 10 min ([1]; male, Wistar, rat, muscle, po, 75 mg/kg, Muscle, individual rats, read-out: Concentration (µg/mL) at 10 minutes, Rat 1-3) of 4.8 µg/mL and a concentration at 30 min ([1]; male, Wistar, rat, muscle, po, 75 mg/kg, Muscle, individual rats, read-out: Concentration (µg/mL) at 30 minutes, Rat 1-3) of 3.4 µg/mL. It also gave a concentration at 90 min ([1]; male, Wistar, rat, muscle, po, 75 mg/kg, Muscle, individual rats, read-out: Concentration (µg/mL) at 90 minutes, Rat 1-3) of 3.2 µg/mL, a concentration at 3 h ([1]; male, Wistar, rat, muscle, po, 75 mg/kg, Muscle, individual rats, read-out: Concentration (µg/mL) at 3 h, Rat 1-3) of 3 µg/mL and a Tmax ([1]; male, Wistar, rat, po, rats, read-out: time of maximum concentration in tissues and organs (converted)) of 10 min. The concentration at 10 min ([1]; male, Wistar, rat, small intestine, po, 75 mg/kg, Small intestine, 10 min, n = 3, read-out: Average Concentration) was 31.6 µg/mL, the concentration at 30 min ([1]; male, Wistar, rat, small intestine, po, 75 mg/kg, Small intestine, 30 min, n = 3, read-out: Average Concentration) was 15.7 µg/mL and the concentration at 90 min ([1]; male, Wistar, rat, small intestine, po, 75 mg/kg, Small intestine, 90 min, n = 3, read-out: Average Concentration) was 15.8 µg/mL. For the same compound, the concentration at 3 h ([1]; male, Wistar, rat, small intestine, po, 75 mg/kg, Small intestine, 3 h, n = 3, read-out: Average Concentration) was 14.8 µg/mL, the concentration at 6 h ([1]; male, Wistar, rat, small intestine, po, 75 mg/kg, Small intestine, 6 h, n = 3, read-out: Average Concentration) was 10.1 µg/mL and the concentration at 90 min ([1]; male, Wistar, rat, small intestine, po, 75 mg/kg, Small intestine, individual rats, read-out: Concentration (µg/mL) at 90 minutes, Rat 1-3) was 15.1 µg/mL. For the same compound, the concentration at 3 h ([1]; male, Wistar, rat, small intestine, po, 75 mg/kg, Small intestine, individual rats, read-out: Concentration (µg/mL) at 3 h, Rat 1-3) was 14.2 µg/mL, the concentration at 6 h ([1]; male, Wistar, rat, small intestine, po, 75 mg/kg, Small intestine, individual rats, read-out: Concentration (µg/mL) at 6 h, Rat 1-3) was 9.1 µg/mL and the concentration at 10 min ([1]; male, Wistar, rat, spleen, po, 75 mg/kg, Spleen, 10 min, n = 3, read-out: Average Concentration) was 31.8 µg/mL. It also gave a concentration at 30 min ([1]; male, Wistar, rat, spleen, po, 75 mg/kg, Spleen, 30 min, n = 3, read-out: Average Concentration) of 17.2 µg/mL, a concentration at 90 min ([1]; male, Wistar, rat, spleen, po, 75 mg/kg, Spleen, 90 min, n = 3, read-out: Average Concentration) of 11.7 µg/mL and a concentration at 3 h ([1]; male, Wistar, rat, spleen, po, 75 mg/kg, Spleen, 3 h, n = 3, read-out: Average Concentration) of 8.7 µg/mL. The concentration at 6 h ([1]; male, Wistar, rat, spleen, po, 75 mg/kg, Spleen, 6 h, n = 3, read-out: Average Concentration) was 7.8 µg/mL, the concentration at 10 min ([1]; male, Wistar, rat, spleen, po, 75 mg/kg, Spleen, individual rats, read-out: Concentration (µg/mL) at 10 minutes, Rat 1-3) was 30 µg/mL and the concentration at 30 min ([1]; male, Wistar, rat, spleen, po, 75 mg/kg, Spleen, individual rats, read-out: Concentration (µg/mL) at 30 minutes, Rat 1-3) was 21 µg/mL. The concentration at 10 min ([1]; male, Wistar, rat, stomach, po, 75 mg/kg, Stomach, 10 min, n = 3, read-out: Average Concentration) was 18.3 µg/mL, the concentration at 30 min ([1]; male, Wistar, rat, stomach, po, 75 mg/kg, Stomach, 30 min, n = 3, read-out: Average Concentration) was 10.2 µg/mL and the concentration at 90 min ([1]; male, Wistar, rat, stomach, po, 75 mg/kg, Stomach, 90 min, n = 3, read-out: Average Concentration) was 7.9 µg/mL. It also gave a concentration at 3 h ([1]; male, Wistar, rat, stomach, po, 75 mg/kg, Stomach, 3 h, n = 3, read-out: Average Concentration) of 6.4 µg/mL, a concentration at 6 h ([1]; male, Wistar, rat, stomach, po, 75 mg/kg, Stomach, 6 h, n = 3, read-out: Average Concentration) of 4.7 µg/mL and a concentration at 10 min ([1]; male, Wistar, rat, testis, po, 75 mg/kg, Testis, 10 min, n = 3, read-out: Average Concentration) of 9.9 µg/mL. It also gave a concentration at 30 min ([1]; male, Wistar, rat, testis, po, 75 mg/kg, Testis, 30 min, n = 3, read-out: Average Concentration) of 3.8 µg/mL, a concentration at 90 min ([1]; male, Wistar, rat, testis, po, 75 mg/kg, Testis, 90 min, n = 3, read-out: Average Concentration) of 4 µg/mL and a concentration at 3 h ([1]; male, Wistar, rat, testis, po, 75 mg/kg, Testis, 3 h, n = 3, read-out: Average Concentration) of 3 µg/mL. For the same compound, the concentration at 6 h ([1]; male, Wistar, rat, testis, po, 75 mg/kg, Testis, 6 h, n = 3, read-out: Average Concentration) was 3.1 µg/mL, the concentration at 30 min ([1]; male, Wistar, rat, testis, po, 75 mg/kg, Testis, individual rats, read-out: Concentration (µg/mL) at 30 minutes, Rat 1-3) was 4 µg/mL and the concentration at 3 h ([1]; male, Wistar, rat, testis, po, 75 mg/kg, Testis, individual rats, read-out: Concentration (µg/mL) at 3 h, Rat 1-3) was 3.1 µg/mL. The concentration at 6 h ([1]; male, Wistar, rat, testis, po, 75 mg/kg, Testis, individual rats, read-out: Concentration (µg/mL) at 6 h, Rat 1-3) was 2.1 µg/mL, the “crossing of blood-brain barrier and hemato-testicular barrier” value ([1]; rats, 75 mg/kg) was “able to cross the blood-brain barrier and hemato-testicular barrier; also recorded: crossed the hemato-encephalic barrier” and the “reduction of the free radical DPPH” value [2] was “about 90%”. It also gave an LD50 at 14 days ([3]; ip) of over 1100 mg/kg, an LD50 at 14 days ([3]; po) of over 2000 mg/kg and a GHS category (Wistar rats; i.p. route) of 4. For the same compound, the “macroscopic changes at necropsy” value (Wistar rats; liver, small intestine, colon, heart, spleen, stomach, kidneys) was “no macroscopic changes were observed; also recorded: non-macroscopic changes”, the GHS category (Wistar rats; p.o. route) was 5 and the signs of toxicity (Wistar rats; p.o. route, 14 days) was “did not show any signs of apparent toxicity”.
